Results taken from patent publication EP1153612A1, “ANTICANCER AGENT POTENTIATORS” (Tsuruo, Takashi, priority 1999, dated 2000).

Legend:
[1] = test system: human colon cancer cell HT29; assay: Anticancer therapy in human cancer cell-transplanted nude mouse model (size of tumor lump); assay type: in vivo, nude mouse BALB/cAnNCrj-nu/nu; settings: Example 5; intraperitoneally three times every 4 days; etoposide 33 mg/kg, lactacystin 40 mg/kg; in combined use lactacystin 5 hours before etoposide; FIG. 11
From the text: A human colon cancer cell HT29 was transplanted subcutaneously to a nude mouse to examine a therapeutic effect of combined use of lactacystin, the proteasome inhibiting agent, with etoposide, the anticancer drug targeting topoisomerase II.
As an experimental animal, the nude mouse BALB/cAnNCrj-nu/nu of 8-week old female (Charles River Laboratories product) was used. In order to form a tumor lump in the nude mouse, 1×10^7 HT29 cells was subcutaneously transplanted. After 8 to 10 days of transplanting, the tumor lump of HT29 cells grew to […] and at this point, the therapy was started. […]
The therapy was conducted by dividing the HT29 tumor-transplanted mice into 4 groups to assign 4 animals to 1 group as follows by administering intraperitoneally three times every 4 days: (1) control group untreated with saline, (2) etoposide 33 mg/kg, (3) lactacystin 40 mg/kg, (4) lactacystin 40 mg/kg and etoposide 33 mg/kg. […] Since start of the therapy, a size of the tumor lump was measured to measure effect of the therapy by administration of drugs once every 4 days. […]
The effect of therapy by simultaneous administration of the proteasome inhibiting agent, lactacystin, and the topoisomerase II-targeting anticancer, doxorubicin was examined. […] After start of treatment, once every 4 to 5 days, the size of the tumor lump was measured to measure the effect of treatment by drug administration.

[2] = test system: human colon adenocarcinoma cell HT-29; assay: Sensitivity of cells to anticancer drug by colony formation method (M phase-synchronized cells, with or without proteasome inhibiting agent); assay type: cell-based; settings: etoposide 5, 10, and 15 µg/ml, 1 hour, FIG. 1
Protocol: In the glucose starvation environment found in the solid cancer, the effect of combined use of the proteasome inhibitor in a human colon adenocarcinoma cell HT-29 with the anticancer drug targeting topoisomerase II was tested.
Concerning culture media, for a culture condition in a normal state, RPMI 1640 medium (Nissui Pharmaceutical Co.-made) to which a 5% FBS (fetal bovine serum) was added and for the culture condition in the glucose starvation state symbolically found in the solid cancer, RPMI 1640 medium (Lifetech Oriental-made), lacking glucose, in which the 5% FBS was added were used, respectively. Culture was carried out using a CO2 incubator (Tabai Espec-made) under conditions of 5% CO2/95% air and humidity 100%.
In order to test sensitivity to the anticancer drug, the cell cycle synchronization culture methodwas employed. Nocodazol (Sigma made) was used to synchronize the cell cycle, cells in a logarithmic proliferation phase were treated with 40 ng/ml Nocodazol for 9 hours, and cells accumulated in cell division phase (Mpahse) were collected by gentle pipetting. M phase-synchronized cells collected through these steps were washed with PBS (phosphate buffered saline) followed by inoculation of 1×10^5 cells per well of 12 well-culture plate.
M phase-synchronized cells were cultured under the normal condition and the glucose starvation condition to conduct treatments with the proteasome inhibiting agent and the anticancer drug as follows. For cells under the glucose starvation condition, the culture medium, to which the proteasome inhibiting agent and the protease inhibiting agent not inhibiting proteasome were added as the control group, and the culture medium, to which no inhibiting agent has been added, was used. For cells under the normal condition, the culture medium, to which each inhibiting agent was not added, was used. After inoculation of cells, culture was carried out for 13 hours in each culture medium. […]
Sensitivity of cells to the anticancer drug was measured using the colony formation method. As described above, cells treated with the proteasome inhibiting agent and the anticancer drug were washed with PBS followed by soaking in trypsin (Lifetech Oriental made) solution and removed from a culture dish to suspend in an ordinary culture medium. These cells were inoculated again in 500 to 5000 cells for a 10 cm culture dish and cultured for 10 to 12 days to form a colony. The colony formed was fixed by 10% formaldehyde solution and stainedwith 0.01% crystal violet (Wako Pure Chemicals made) solution. Number of colony was counted and a Cell survival rate was calculated assuming that the number of colonies untreated with the anticancer drug is 1.
For reference, the proteasome inhibiting agent and the protease inhibiting agent not inhibiting proteasome used as described above were as follows. • (1) Proteasome inhibiting agent • . […] MG115 (carbobenzoxy-L-Leucyl-L-Leucyl-L-Norvalinal): final concentration 2.5 µM (Peptide Institute Inc. made) • . MG132 (carbobenzoxy-L-Leucyl-L-Leucyl-Leucinal) : final concentration 2.5 µM (Peptide Institute Inc. made) • . Lactacystin, final concentration 10 µM (Kindly supplied from The Kitasato Institute made) • (2) Protease inhibiting agent not inhibiting proteasome • . E64, final concentration 25 µM (Peptide Institute Inc. made) • . ZLLal (carbobenzoxy-L-Leucyl-L-Leucinal): final concentration 25 µM (Peptide Institute Inc. made)
The cell culture condition for both M phase-synchronized culture method and culture under the glucose starvation condition was as described in Example 1. M phase-synchronized cells were cultured in the culture medium, to which lactacystin of the final concentration 10 µM was added, or the culture medium, to which this was not added, as the proteasome inhibiting agent under the ordinary condition and the glucose starvation condition, respectively, for 13 hours. […]

topoisomerase I = assay: Amount of expression of topoisomerase I in whole cell extract by western blotting; assay type: cell-based, human; settings: ordinary and glucose starvation condition; 2.5, 5, and 10 µM; FIG. 17(a)
Protocol: The cell culture condition for both M phase-synchronized culture method and culture under the glucose starvation condition was as described in Example 1. M phase-synchronized cells were cultured in the culture medium, to which lactacystin of the final concentration 10 µM was added, or the culture medium, to which this was not added, as the proteasome inhibiting agent under the ordinary condition and the glucose starvation condition, respectively, for 13 hours. […] In order to examine sensitivity of cells against the topoisomerase I inhibiting agent, camptothecin (Yakult made), the drug was added to the culture medium to continue further culturing for 4 hours. Sensitivity of cells was measured by applying the colony formation method described in Example 1. On the other hand, the amount of expression of topoisomerase I that is the target molecule of camptothecin was measured by preparing the whole cell extract solution as described in Example 2 followed by the western blotting method. For reference, in measuring the amount of expression of topoisomerase I, regarding the proteasome inhibiting agents, clasto-lactacystin β lactone (Boston Biochem made), which is an activated form of lactacystin, was used in the final concentration of 2.5, 5, and 10 µM. Meanwhile, as the antibody against human topoisomerase I, a mouse monoclonal antibody established by Tsuruo et al. was used.

topoisomerase IIα = assay: Amount of expression of topoisomerase IIα in whole cell extract by western blotting; assay type: cell-based, human; settings: glucose starvation condition; 2.5, 5, and 10 µM; FIG. 17(b)
From the text: Topoisomerase II inhibiting anticancer drug stabilizes a complex (cleavable complex) consisting of the DNA and topoisomerase IIα occurring in a catalytic reaction process of topoisomerase IIα to cause DNA damage. Therefore, cell-killing effect of the topoisomerase II-inhibiting anticancer drug depends on the amount of intracellular expression of topoisomerase IIα essential for formation of the cleavable complex. Then, the amount of expression of topoisomerase IIα in the cultured cancer cell under the glucose starvation and hypoxia environment that are found in the solid cancer and the effect of the proteasome inhibiting agent to the amount of expression were examined.
The culture condition of cells is same as that described in Example 1 including the M phase synchronous culture method and culture under the glucose starvation condition. Culture under hypoxia condition, that is found in the solid cancer, similar to glucose starvation was carried out using the culture medium (that prepared by adding 5% FBS to RPMI1640 culture medium) under the ordinary condition in a Gaspack 100 anaerobic system (Becton Dickinson made). Culture under the glucose starvation condition and hypoxia condition was carried out for 14 hours .
With the purpose to prepare a whole cell extract solution, cells culture under the above described condition were washed with an ice-cooled PBS twice and then, cells were removed from the culture dish by using a cell scraper (Sumitomo Bakelite made) for collection. Cells collected were precipitated by centrifugation and then, dissolved in an SDS sample buffer to collect as the extract solution from all cells. For reference, the composition of the SDS sample buffer was 10% v/v, glycerol, 5% 2-mercaptoethanol, 2% SDS (sodium lauryl sulfate), and 62.5 mM tris-hydrochloric acid (pH 6.8).
The amount of topoisomerase IIα in the extract solution from all cells was measured by the western blotting method. The extract solution from all cells containing a total protein quantity of 30 µg was put on an SDS polyacrylamide gel (4-20 Multigel: Daiichi Pure Chemicals K.K. made) and subjected to electrophoresis in an electrophoresis buffer (25 mM tris, 192 mM glycine, and 0.1% SDS) in a 40 mA constant current for 1 hour. Subsequently, blotting was carried out in 4°C blotting buffer (25 mM tris, 192 mM glycine, and 20% methanol) in a 50 V constant voltage for 12 hours to transfer a protein separated in the SDS polyacrylamide gel to a nitrocellulose membrane. This nitrocellulose membrane was soaked in a blocking buffer (0.1% Tween 20, 4% skim milk-added PBS) for 1 hour to carry out blocking. The nitrocellulose membrane blocked was soaked in a solution, that was prepared by adding anti-topoisomerase IIα antibody (Cambridge Research Biochemicals Corp. made) of the final concentration 1 µg/ml as the primary antibody to the blocking buffer solution, for 1 hour. The nitrocellulose membrane was washed with the blocking buffer three times (5 minutes once), and then, soaked in the solution, in which a 1/1000 volume of an antimouse antibody (Amersham Pharmacia Biotech made) labeled with horse radish peroxidase as a secondary antibody had been added to the blocking buffer, for 1 hour. The nitrocellulose membrane was washed with the blocking buffer three times (5 minutes once), and then, washed with the PBS, to which 0.1% Tween 20 was added, three times (5 minutes once). The nitrocellulose membrane after completion of antibody reaction and washing was treated with the ECL reagent (Amersham Pharmacia Biotech made) after a handling manual and a topoisomerase IIα-specific signal was detected on an X-OMAT™AR film (Kodakmade). For reference, steps after blotting was carried out in a room temperature. […]
The cell culture condition for both M phase-synchronized culture method and culture under the glucose starvation condition was as described in Example 1. […]

Row | Compound | suppression of tumor proliferation (size of the tumor lump) [1] | Cell survival (colony formation) with etoposide ([2]; glucose starvation condition) | Cell survival (colony formation) with etoposide ([2]; ordinary culture condition) | amount of expression of topoisomerase I (topoisomerase I) | amount of expression of topoisomerase IIα (topoisomerase IIα)
1 | COc1cc([C@@H]2c3cc4c(cc3[C@@H](O[C@@H]3O[C@@H]5CO[C@@H](C)O[C@H]5[C@H](O)[C@H]3O)[C@H]3COC(=O)[C@H]23)OCO4)cc(OC)c1O [etoposide] | less suppression of tumor proliferation | cells showed resistance against etoposide to survive | almost all HT29 cells died | – | –
2 | CC(C)[C@H](O)[C@@]12NC(=O)[C@H](C)[C@@H]1OC2=O [activated type of lactacystin, clasto-lactacystin β lactone] | – | – | – | does not change | the lowering of expression is perfectly inhibited
